Reference: US8207206B2, “(S,R)-3-phenyl-4,5 dihydro-5-isoxazole acetic acid-nitric oxide and use thereof as anti-cancer and antiviral agent” (OncoNOx APS, priority 2007, dated 2012)

Test system: C6 cells
Experiment: Nitrite accumulation (Griess reaction)
Format: cell-based, rat
Details: 24 h
Experimental: Nitrite accumulation was measured by Griess reaction as previously described (Mijatovic et al CMLS 2004).

Structure (SMILES): N#Cc1c(COC(=O)CC2CC(c3ccccc3)=NO2)no[n+]1[O-] (racemic) [GIT27-NO, (S,R)-3-phenyl-4,5 dihydro-5-isoxazole acetic acid-nitric oxide]
- accumulation of nitrites (NO release) in culture media alone (in the absence of cells): failed to release NO and to form nitrites
- accumulation of nitrites in cell culture supernatants (in the presence of C6 cells): significant amount of nitrites
